We go through 15 molecules from patent publication US7122545B2, “Imidazo-benzothiazoles” (Hoffmann-La Roche Inc., priority 2003, dated 2006).

As a reminder, the melting point is the temperature, or range, at which the solid turns liquid.

Structures can show the parent of a compound that is named as a salt.

In the case of `COc1ccc(N2CCOCC2)c2sc(-c3nc4c([nH]3)CCNCC4)nc12.Cl`, the melting point is 267 to 269 °C. `COc1ccc(N2CCOCC2)c2sc(-c3nc4c([nH]3)CCCC4)nc12` (as salt: ammonium) [Example 22, 4-Methoxy-7-morpholin-4-yl-2-(4,5,6,7-tetrahydro-1H-benzoimidazol-2-yl)-benzothiazole] yielded a melting point of 165 °C. The same measure for `COc1ccc(N2CCOCC2)c2sc(-c3nc4c([nH]3)CCN(C(=O)OC(C)(C)C)CC4)nc12` [Example 24, 2-(4-Methoxy-7-morpholin-4-yl-benzothiazol-2-yl)-4,5,7,8-tetrahydro-1H-imidazo[4,5-d]azepine-6-carboxylic acid tert-butyl ester]: 142 to 144 °C; for `COc1ccc(N2CCOCC2)c2sc(-c3nc(-c4ccc5c(c4)OCCO5)c[nH]3)nc12` [Example 16, 2-[4-(2,3-Dihydro-benzo[1,4]dioxin-6-yl)-1H-imidazol-2-yl]-4-methoxy-7-morpholin-4-yl-benzothiazole]: 235 to 237 °C. `COc1ccc(N2CCOCC2)c2sc(-c3nc(-c4ccsc4)c[nH]3)nc12` (as salt: ammonium) [Example 19, 4-Methoxy-7-morpholin-4-yl-2-(4-thiophen-3-yl-1H-imidazol-2-yl)-benzothiazole] gave a melting point of 170 °C. To `COCn1c(-c2nc3c(OC)ccc(N4CCOCC4)c3s2)nc2ccc(Cl)nc21` [Example 7, 5-Chloro-3-methoxymethyl-2-(4-methoxy-7-morpholin-4-yl-benzothiazol-2-yl)-3H-imidazo[4,5-b]pyridine] belongs 167 to 170 °C. The same measure for `COc1ccc(N2CCOCC2)c2sc(-c3nc4c([nH]3)CCN(C(C)=O)CC4)nc12` [Example 27, 1-[2-(4-Methoxy-7-morpholin-4-yl-benzothiazol-2-yl)-4,5,7,8-tetrahydro-1H-imidazo[4,5-d]azepin-6-yl]-ethanone]: 195 to 197 °C; for `COc1ccc(N2CCOCC2)c2sc(-c3nc4c([nH]3)CCNC4)nc12.Cl`: 268 to 271 °C.

The molecule `COc1ccc(N2CCOCC2)c2sc(-c3nc(-c4cccs4)c[nH]3)nc12` (as salt: ammonium) [Example 18, 4-Methoxy-7-morpholin-4-yl-2-(4-thiophen-2-yl-1H-imidazol-2-yl)-benzothiazole] gave a melting point of 165 °C. The molecule `COc1ccc(C2CCOCC2)c2sc(-c3ncc[nH]3)nc12` [Example 45, 2-(1H-Imidazol-2-yl)-4-methoxy-7-(tetrahydro-pyran-4-yl)-benzothiazole] showed a melting point of 220 to 224 °C. The same measure for `COc1ccc(N2CCOCC2)c2sc(-c3ncc(-c4csc5ccccc45)[nH]3)nc12` [Example 17, 2-(5-Benzo[b]thiophen-3-yl-1H-imidazol-2-yl)-4-methoxy-7-morpholin-4-yl-benzothiazole]: 161 to 162 °C; for `COc1ccc(N2CCOCC2)c2sc(-c3nc(-c4ccccc4)c[nH]3)nc12` [Example 15, 4-Methoxy-7-morpholin-4-yl-2-(4-phenyl-1H-imidazol-2-yl)-benzothiazole]: 226 to 233 °C; for `COc1ccc(N2CCOCC2)c2sc(-c3nc4c([nH]3)CCN(C(C)=O)C4)nc12` [Example 39, 1-[2-(4-Methoxy-7-morpholin-4-yl-benzothiazol-2-yl)-1,4,6,7-tetrahydro-imidazo[4,5-c]pyridin-5-yl]-ethanone]: 155 to 157 °C. The same measure for `COc1ccc(N2CCOCC2)c2sc(-c3nc(Cc4cccs4)c[nH]3)nc12` (as salt: ammonium) [Example 21, 4-Methoxy-7-morpholin-4-yl-2-(4-thiophen-2-ylmethyl-1H-imidazol-2-yl)-benzothiazole]: 165 °C; for `COc1ccc(N2CCOCC2)c2sc(-c3nc4c([nH]3)CCN(CC(N)=O)CC4)nc12` [Example 46, 2-[2-(4-Methoxy-7-morpholin-4-yl-benzothiazol-2-yl)-4,5,7,8-tetrahydro-1H-imidazo[4,5-d]azepin-6-yl]-acetamide]: 299 to 302 °C.
